In patent US20090131354A1, “miR-126 REGULATED GENES AND PATHWAYS AS TARGETS FOR THERAPEUTIC INTERVENTION” (priority 2007, published 2009):

Tests used:
Type in all cases: cell-based, human
[1] = test system: H226 lung cancer cells; assay: Alamar Blue proliferation assay, H226
Text: (§1) The inventors assessed the therapeutic effect of hsa-miR-126 for lung cancer by using 11 individual lung cancer cell lines. To measure cellular proliferation of lung cancer cells, the following non-small cell lung cancer (NSCLC) cells were used: cells derived from lung adenocarcinoma (A549, H1299, H522, H838, Calu-3, HCC827, HCC2935), cells derived from lung squamous cell carcinoma (H520, H226), cells derived from lung bronchioalveolar carcinoma (H1650), and cells derived from lung large cell carcinoma (H460). Synthetic hsa-miR-126 (Pre-miR™-hsa-miR-126, Ambion cat. no. AM17100) or negative control (NC) miRNA (Pre-miR™ microRNA Precursor Molecule-Negative Control #2; Ambion cat. no. AM17111) was delivered via lipid-based transfection into A549, H1299, H522, H838, Calu-3, HCC827, HCC2935, H520, H1650, and H460 cells, and via electroporation into H226 cells.
Lipid-based reverse transfections were carried out in triplicate according to a published protocol (Ovcharenko et al., 2005) and the following parameters: Cells (5,000-12,000 per 96 well), 0.1-0.2 μl Lipofectamine™ 2000 (cat. no. 11668-019, Invitrogen Corp., Carlsbad, Calif., USA) in 20 μl OptiMEM (Invitrogen), 30 nM final concentration of miRNA in 100 μl. […] Electroporated H226 cells were seeded at 7,000 cells per 96-well in a total volume of 100 μl. All cells except for Calu-3 cells were harvested 72 hours post transfection or electroporation for assessment of cellular proliferation. Calu-3 cells were harvested 10 days post transfection. Proliferation assays were performed using Alamar Blue (Invitrogen) following the manufacturer's instructions. As a control for inhibition of cellular proliferation, siRNA against the motor protein kinesin 11, also known as Eg5, was used. Eg5 is essential for cellular survival of most eukaryotic cells and a lack thereof leads to reduced cell proliferation and cell death (Weil et al., 2002). siEg5 was used in lipid-based transfection following the same experimental parameters that apply to miRNA. […]

[2] = test system: H838 lung cancer cells; assay: Alamar Blue proliferation assay, H838; details: relative to NC miRNA (100%)
Text: as §1
(§2) Lipid-based reverse transfections were carried out in triplicate according to a published protocol (Ovcharenko et al., 2005) and the following parameters: Cells (5,000-12,000 per 96 well), 0.1-0.2 μl Lipofectamine™ 2000 (cat. no. 11668-019, Invitrogen Corp., Carlsbad, Calif., USA) in 20 μl OptiMEM (Invitrogen), 30 nM final concentration of miRNA in 100 μl. Electroporation of H226 cells was carried out using the BioRad Gene Pulser Xcell™ instrument (BioRad Laboratories Inc., Hercules, Calif., USA) with the following settings: 5×10^6 cells with 5 μg miRNA in 200 μl OptiMEM (1.6 μM miRNA), square wave pulse at 250 V for 5 ms. Electroporated H226 cells were seeded at 7,000 cells per 96-well in a total volume of 100 μl. All cells except for Calu-3 cells were harvested 72 hours post transfection or electroporation for assessment of cellular proliferation. Calu-3 cells were harvested 10 days post transfection. Proliferation assays were performed using Alamar Blue (Invitrogen) following the manufacturer's instructions. As a control for inhibition of cellular proliferation, siRNA against the motor protein kinesin 11, also known as Eg5, was used. […]

[3] = test system: A549 lung cancer cells; assay: Alamar Blue proliferation assay, A549
Text: as §1, §2

[4] = test system: H1299 lung cancer cells; assay: Alamar Blue proliferation assay, H1299; details: relative to NC miRNA (100%)
Text: as §1, §2

For COc1cc([C@@H]2c3cc4c(cc3[C@@H](O[C@@H]3O[C@@H]5CO[C@@H](C)O[C@H]5[C@H](O)[C@H]3O)[C@H]3COC(=O)[C@H]23)OCO4)cc(OC)c1O [etoposide], the “% proliferation” value ([1]; H226, 50 μM, relative to NC miRNA (100%)) was 9.33%, the “% proliferation” value ([1]; H226, relative to NC miRNA (100%)) was 28.17% and the “% proliferation” value ([2]; H838, 30 nM) was 89.71%. For the same molecule, the “% proliferation” value ([2]; H838, 50 μM) was 36.97%, the “% proliferation” value ([3]; A549, 50 μM, relative to NC miRNA (100%)) was 42.18% and the “% proliferation” value ([3]; A549, relative to NC miRNA (100%)) was 49.13%. The “% proliferation” value ([4]; H1299, 10 μM) was 79.65% and the “% proliferation” value ([4]; H1299, 50 μM) was 54.38%.

In the case of “hsa-miR-126 (UCGUACCGUGAGUAAUAAUGC; synthetic pre-miR form, further chemistry not given here) [Synthetic hsa-miR-126 (Pre-miR™-hsa-miR-126, Ambion cat. no. AM17100)]”, the “% proliferation” value ([1]; H226, 30 nM, electroporation, 72 h, relative to NC miRNA (100%)) is reported as 92.09%, the “% proliferation” value ([2]; H838, 30 nM, 72 h) is reported as 74.05% and the “% proliferation” value ([3]; A549, 30 nM, 72 h, relative to NC miRNA (100%)) is reported as 84.30%. For the same molecule, the “% proliferation” value ([4]; H1299, 30 nM, 72 h) was 89.37%.
